Patent publication US7345037B2, “Nitrosated and nitrosylated compounds and compositions and their use for treating respiratory disorders” (Nitromed, Inc., priority 1996, dated 2008)

What was measured:
[1] = test system: acute bronchoconstriction and late bronchial obstruction after inhalation challenge with Ascaris Suum; assay: Ascaris suum-induced immediate and late bronchial response (mean lung resistance sR1) in allergic conscious sheep; assay type: in vivo; details: for protection of the immediate response / protection of the peak late response: 500 μg aerosolized 30 minutes prior to ascaris suum challenge, referenced to historical controls, n=3
From the text: (§1) The measurement of biological activity in a pulmonary model of allergic asthma and lung inflammation was undertaken in adult conscious sheep. The methodology was essentially as described by W. M. Abraham et al. (Bull. Eur. Physiopathol. Respir., 22, 387 (1986)). Adult sheep with a natural cutaneous reaction to Ascaris Suum extract and who respond to inhalation challenge with Ascaris Suum with both an acute bronchoconstriction and a late bronchial obstruction were used in the study.
Unsedated sheep were intubated and measurement of airway mechanics were computed and recorded on a digital computer utilizing inputs of transpulmonary pressure and tracheal airflow recordings. Each animal was exposed to an aerosol of ascaris suum, diluted to produce an immediate and significant increase in mean lung resistance (sR1) of approximately 600-700% above baseline. […] This second response is known as the late response. sR1 returned to baseline by 24 hours. Each animal was exposed to an aerosol of ascaris suum at a minimum of two week interval. […]
(§2) Each test drug was aerosolized to an animal 30 minutes prior to challenge with ascaris suum.

[2] = test system: airway responsiveness to aerosolized carbachol after exposure to ascaris suum; assay: Airway responsiveness to aerosolized carbachol (PC150) before and after Ascaris suum challenge in allergic conscious sheep; assay type: in vivo; details: 500 μg aerosolized, PC150 of carbachol 24 hours prior to and 24 post ascaris suum exposure, closer to unity is better
From the text: as §1
Airway responsiveness was measured by calculation of a PC150 value. The PC150 is the dose of aerosolized carbachol which produces a 150% increase in sR1 above baseline. The doses of carbachol were administered in an ascending dose-response fashion with each dose being administered for a 10 breath duration. The PC150 value was determined for each animal 24 hours prior to exposure to ascaris suum and again 24 post exposure. The difference in PC150 values represented a change in airway responsiveness. The closer the post challenge to prechallenge ratio to unity the better the effect of the particular compound.
as §2

Row | Compound | protection of the immediate response [1] [%] | protection of the peak late response [1] [%] | protection against lung function changes due to aerosol challenge of ascaris suum ([1]; overall comparison with the parent steroid) | post challenge/prechallenge ratio of PC150 values (airway hyperresponsiveness) [2]
1 | 6α-Fluoro-11β-hydroxy-16α,17-((1-methylethylidene)bis(oxy))pregna-1,4-diene-3,20-dione-21-(3-methyl-3-nitrosothio)-butanoate [Example 1] | 59±14 | 89±2 | better protection | 1.18±0.06
2 | CC1(C)O[C@@H]2C[C@H]3[C@@H]4C[C@H](F)C5=CC(=O)C=C[C@]5(C)[C@H]4[C@@H](O)C[C@]3(C)[C@]2(C(=O)CO)O1 [6α-Fluoro-11β, 21-dihydroxy-16α, 17α-((1-methylethylidene)bis(oxy))pregna-1,4-diene-3,20-dione, reference compound] | 16±21 | 83±7 |  | 0.98±0.10
